Article PMC12473906, “Comparing the Altis RepliGut Organoid System to MDCK Monolayers in Predicting the Oral Absorption of Lenalidomide” (Pharmaceutics, 2025)
Read-outs that look alike come from different tables or passages of the source.

Tests used:
[1] = test system: human intestinal organoid-derived monolayer (RepliGut); test: RepliGut human jejunal organoid-derived monolayer permeability assay
[2] = as above; conditions: human
[3] = test system: MDCK cells and other traditional in vitro systems; conditions: cited from earlier work
[4] = Lenalidomide pharmacokinetic study in rats (IV and oral); type: in vivo, Sprague Dawley rats; conditions: for AUC / Cmax / Tmax / half-life / bioavailability: plasma; for bioavailability: po
Experimental: All animal pharmacokinetic experiments were carried out by WuXi (Shanghai, China). Animals were kept on a light-dark cycle and allowed to eat and drink ad libitum. Animals receiving oral doses were fasted overnight. Animals’ condition and behavior were monitored throughout the experiment for signs of pain and distress. We utilized only male rats because similar pharmacokinetics in both genders was previously reported and no dosage adjustment is recommended based on gender, in order to reduce the number of animals required.
Male Sprague Dawley rats (230–280 g) (n = 3 per group) were administered lenalidomide (0.1, 1, 2, 10, and 50 mg/kg). The vehicles for oral and intravenous dosing were 0.6% methylcellulose A15 + 0.2% Tween 80 in water and 10% DMSO + 60% propylene glycol + 30% water, respectively. Serum samples were obtained prior to administration (predose) and at 0.033, 0.083, 0.25, 0.5, 1, 2, 4, and 6 h postdose from the IV group and at 0.083, 0.25, 0.5, 1, 2, 4, 8, and 24 h from the oral groups. Approximately 250 μL was collected at each time point via a catheter at the femoral artery from each rat into prechilled commercial K2-EDTA tubes on wet ice. Samples were centrifuged (3200× g for 10 min at 4 °C) within one hour of collection and frozen at −60 °C or lower before analysis. Approximately 5 mL of whole blood was collected from additional blank animals into prechilled commercial K2-EDTA tubes on wet ice and pooled to serve as blank plasma for bio-analysis. […] Animals were kept in metabolic cages to collect urine, feces, and bile at different periods after dosing. Wet ice was added during the whole collection process for urine and feces. Feces was homogenized in water, and the urine samples and feces homogenates were kept at −70 ± 10 °C until LC-MS/MS analysis. Pharmacokinetic parameters were calculated by non-compartmental methods, as described in Gibaldi and Perrier, using Phoenix® WinNonlin® version 8.5 (Certara L.P., Radnor, PA, USA).
The human equivalent dose (HED) was calculated based on the previously reported AUC after a typical dose in humans. The percentage of lenalidomide excreted in the feces/urine in 24 h was calculated by multiplying the fecal weight/urine volume by its measured lenalidomide concentration and dividing by the total amount of lenalidomide administered.(2) Percentage excreted in feces=100 · Feces weight ·Feces concentration /Dose volume ·Dose concentration (3) Percentage excreted in urine=100 · Urine volume ·Urine concentration /Dose volume ·Dose concentration
For the in vivo study, mass spectrometry detection of lenalidomide was accomplished using a SCIEX QTrap 6500+. Transition pairs used for quantification were as follows: lenalidomide (260.1 → 149.1 Da), labetalol (329.1 → 294.1 Da), indomethacin (357.9 → 139.0 Da), and loperamide (477.1 → 266.2 Da). Separation was achieved using a Waters Acquity UPLC system.
For urine samples, mobile phase A was 0.1% NH4OH and 2 mM NH4OAc in water/acetonitrile (v:v, 95:5), and mobile phase B was 0.1% NH4OH and 2 mM NH4OAc in acetonitrile/water (v:v, 95:5). Mobile phases were operated at the following gradient: initial, 1% B; 0–0.2 min, 1% B; 0.2–1, 30% B; 1–1.5, 100% B; 1.5–1.9, 100% B; 1.9–1.91, 1% B; and 1.91–2, 1% B. The column used was a Waters Acquity UPLC BEH C18 1.7 μm (2.1 × 50 mm) with flow rate of 0.6 mL/min and column oven temperature of 60 °C.
For plasma and feces samples, mobile phase A was 0.1% formic acid and 2 mM HCOONH4 in water, and mobile phase B was 0.1% formic acid and 2 mM HCOONH4 in acetonitrile/water (v:v, 95:5). Mobile phases were operated at the following gradient: initial, 1% B; 0–0.3 min, 1% B; 0.3–1.5, 30% B; 1.5–2.1, 95% B; 2.1–2.4, 95% B; 2.4–2.41, 1% B; and 2.41–2.5, 1% B. The column used was a Waters Acquity UPLC HSS T3 1.8 μm (2.1 × 50 mm) with a flow rate of 0.6 mL/min and a column oven temperature of 45 °C.
For in vivo studies, feces samples were homogenized at a ratio of 1 g feces to 9 mL buffer. […]

[5] = pH 7.4, with elacridar + Ko143 (concentrations not given)
[6] = Sprague Dawley, rat, male rats, 0.1 mg/kg PO
[7] = Sprague Dawley, rat, male rats, 1 mg/kg IV
[8] = Sprague Dawley, rat, male rats, 2 mg/kg PO
[9] = Sprague Dawley, rat, male rats, 10 mg/kg PO
[10] = Sprague Dawley, rat, male rats, 50 mg/kg PO

Structure (SMILES): Nc1cccc2c1CN(C1CCC(=O)NC1=O)C2=O (centres unmarked) [Lenalidomide]
- Efflux Substrate ([1]; Yes/No): Yes
- intracellular concentrations in intestinal organoids with and without elacridar ([1]; apical dosing): similar
- accumulation in cells, gMDCK vs organoids ([1]; basolateral dosing): greater in gMDCK cells than organoids
- intracellular accumulation in organoids, lower than gMDCK ([1]; basolateral to apical direction): approximately 10 fold
- accumulation in the cellular compartment, organoid vs gMDCK monolayers ([1]; dosed apically): no significant difference
- apical to basolateral apparent permeability in intestinal organoids compared with gMDCK monolayers ([1]; organoid vs gMDCK): significantly higher
- basolateral to apical permeability in intestinal organoids compared with gMDCK cells ([1]; organoid vs gMDCK): significantly higher
- Papp A→B at 3 h ([2]; pH 7.4): 0.58 ×10⁻⁶ cm/s
- Papp B→A at 3 h ([2]; pH 7.4): 2.64 ×10⁻⁶ cm/s
- Papp at 3 h ([2]; pH 7.4): ~0.6 ×10⁻⁶ cm/s
- Papp at 3 h, 500 µM ([2]; pH 7.4): 0.58 ×10⁻⁶ cm/s
- efflux ratio at 3 h ([2]; pH 7.4, Efflux Ratio, human jejunal organoids, Papp B to A/Papp A to B): 4.6
- efflux ratio at 3 h ([2]; pH 7.4, efflux ratio, intestinal organoids, all concentrations): 3 to 4
- efflux ratio at 3 h ([2]; pH 7.4, with elacridar 5 µM + Ko143 1 µM, Efflux Ratio, human jejunal organoids + elacridar (5 μM) + Ko143 (1 μM)): ~1
- Papp A→B at 3 h [2, 5]: 0.52 ×10⁻⁶ cm/s
- Papp B→A at 3 h [2, 5]: 0.8 ×10⁻⁶ cm/s
- BCS class [3]: 3
- In vitro permeability [3]: Low
- dose excreted ([4]; Sprague Dawley, rat, feces, male rats, 0.1 mg/kg PO, read-out: Fecal Recovery): 12%
- dose excreted ([4]; Sprague Dawley, rat, feces, male rats, 1 mg/kg IV, 24 h, read-out: Fecal Recovery): 3.2%
- dose excreted ([4]; Sprague Dawley, rat, feces, male rats, 2 mg/kg PO, read-out: Fecal Recovery): 12%
- dose excreted ([4]; Sprague Dawley, rat, feces, male rats, 10 mg/kg PO, read-out: Fecal Recovery): 10%
- dose excreted ([4]; Sprague Dawley, rat, feces, male rats, 50 mg/kg PO, read-out: Fecal Recovery): 16%
- AUC [4, 6]: 0.29 µM·h
- Cmax [4, 6]: 0.2 µM
- Tmax [4, 6]: 25.2 min
- half-life [4, 6]: 52.2 min
- Cmax [4, 7]: 4.9 µM
- Tmax [4, 7]: 1.8 min
- half-life [4, 7]: 72 min
- AUC ([4]; Sprague Dawley, rat, male rats, 1 mg/kg IV, serum, n=3): 2.34 µM·h
- AUC [4, 8]: 5.44 µM·h
- Cmax [4, 8]: 1.6 µM
- Tmax [4, 8]: 19.8 min
- half-life [4, 8]: 84 min
- AUC [4, 9]: 15.4 µM·h
- Cmax [4, 9]: 8.4 µM
- Tmax [4, 9]: 25.2 min
- half-life [4, 9]: 84 min
- AUC [4, 10]: 79.4 µM·h
- Cmax [4, 10]: 29 µM
- Tmax [4, 10]: 30 min
- half-life [4, 10]: 162 min
- dose excreted ([4]; Sprague Dawley, rat, urine, male rats, 0.1 mg/kg PO, read-out: Urinary Recovery): 47%
- dose excreted ([4]; Sprague Dawley, rat, urine, male rats, 1 mg/kg IV, 24 h, unchanged drug, read-out: Urinary Recovery): 87%
- dose excreted ([4]; Sprague Dawley, rat, urine, male rats, 2 mg/kg PO, read-out: Urinary Recovery): 45%
- dose excreted ([4]; Sprague Dawley, rat, urine, male rats, 10 mg/kg PO, read-out: Urinary Recovery): 48%
- dose excreted ([4]; Sprague Dawley, rat, urine, male rats, 50 mg/kg PO, read-out: Urinary Recovery): 43%
- BA ([4]; male rats, 0.1 mg/kg PO): 122%
- BA ([4]; male rats, 1 mg/kg IV (reference)): 100%
- BA ([4]; male rats, 2 mg/kg PO): 116%
- BA ([4]; male rats, 10 mg/kg PO): 66.0%
- BA ([4]; male rats, 50 mg/kg PO): 67.9%
- dose excreted ([4]; male, Sprague Dawley, rat, feces, rats, across oral doses, read-out: fecal recovery): ~12%
- bioavailability ([4]; male, Sprague Dawley, rat, rats, all doses): 68 to 120%
- bioavailability ([4]; male, Sprague Dawley, rat, rats, low doses): > 100%
- Tmax ([4]; male, Sprague Dawley, rat, rats, across oral doses): ~30 min
- CL renal ([4]; male, Sprague Dawley, rat, urine and plasma, iv, 1 mg/kg, read-out: CLR (renal clearance)): 24 mL/min/kg
- dose excreted ([4]; male, Sprague Dawley, rat, urine, rats, all oral doses, read-out: Urinary recovery): ~45%
- Human Equivalent Dose ([4]; rat 2 mg/kg PO): ~26 mg
- Human Equivalent Dose ([4]; rat 10 mg/kg PO): ~73 mg
- Human Equivalent Dose ([4]; rat 50 mg/kg PO): ~376 mg
